{"source": "patent US11160272B2", "about": "“Methods for preserving tissue with medical grade honey” (TRITICUM EXPLOITATIE B.V., priority 2017, dated 2021)", "tested_on": "bovine ovarian cortex tissue", "test": "Endothelial cell density (Factor VIII immunolocalization) in cultured ovarian cortex tissue", "assay_type": "cell-based", "conditions": "treatment mean over 0 h, 4 h, 24 h, 48 h; L-Mesitran 0.2%, VEGF 50 ng.mL-1; in vitro culture TCM-199 with 10% cow serum", "from_the_text": "Four mature crossbred beef cows (12 months of age) were used for this study. […] The 0.2% v/v concentration (L-Mesitran) was chosen according to the highest reported pro-angiogenic effect for this medical grade honey in an in vitro tissue culture. The ovarian cortex endothelial immunolocalization was quantified using Factor VIII [9] R Ag. Rabbit Polyclonal Antibody (ref 760-2642; BenchMark ULTRA IHC/ISH Module staining protocol; Ventana Medical Systems, Inc.; Roche, USA) at concentrations of 2.26 µg/ml, and Fiji software for the digital analysis, after 0 h, 4 h, 24 h and 48 h in each of the mentioned 4 groups. Cellular cytotoxicity (quantitation of lactate dehydrogenase, LDH [11], in cell culture supernatant) was also evaluated in the same mentioned time periods (CytoTox 96® Non-Radioactive Cytotoxicity Assay G1782, Promega GloMax Multi Detection System).\nData from ovarian cortex tissue endothelial density (immunohistochemistry data) and LDH quantification in cell culture supernatant, were analysed using the proc glimmix of SAS (Statistical Analysis Systems, SAS Inst., Inc., Cary, N.C., USA). The models included treatments and hours as fixed effects, and animal (cow) as random (co-variable) effect. The means of each treatment/hours were calculated and compared by the PDIFF multiple comparison test. The differences were considered significant for P≤0.05.", "data": [{"substance": "VEGF", "values": [{"measurement": "Endothelial cell density (Factor VIII immunolocalization), treatment effect", "value": "0.2942±0.1486"}]}]}
